Non-standard residues stand in square brackets, D forms with d. No end group written: not given here.
Key:
[1] = DSF thermal stability of pMHC-I molecules; format: physicochemical
[2] = target: chTAPBPR/HLA-B*08:01 complex (Homo sapiens, UniProt P01889, A93T/A95T/D138N/E176V/E187T/K202T/Q94N/R180D/S35A/V36M/Y33D/Y91F); test: EMSA of peptide-receptive complex with peptides; conditions: 10-fold molar excess peptide
HLA-A*02:01 = HLA-A*02:01 (Homo sapiens, UniProt P04439, D140Y/D185E/D98H/E176V/E277Q/G131W/G231S/I119V/I121R/I166T/I218V/L300P/L318F/N151K/N90K/P208A/P217A/Q86G/Q94H/R138H/R169H/T345S); test: Fluorescence polarization (FP) peptide exchange
[3] = HLA-A*02:01 refolded with the named peptide
[4] = absence or presence of 10 nM hTAPBPR

| Substance | Tm [1, 3] [°C] | exchange of βF placeholder peptide on HLA-A*02:01 for fluorescent peptide (HLA-A*02:01; 5000 nM hTAPBPR) | also measured |
| --- | --- | --- | --- |
| A*02:01/βFILGFVFTV: HLA-A*02:01 loaded with βFILGFVFTV (SEQ ID NO: 66) ([βPhe]ILGFVFTV-OH; not fully specified; printed as βFILGFVFTV; also: loaded in HLA-A*02:01 complex) | – | – | Tm (° C.) ([1]; HLA-A*02 subtypes loaded with KILGFVFβFV and HLA-A*02:01 loaded with βF scanning peptides): 53.9 °C |
| AIFQSSMTK [HIV] | – | – | pMHC-I bands upon incubation of the complex with the peptide [2]: not |
| ALWMRLLPL [T1D30] | – | – | pMHC-I bands upon incubation of the complex with the peptide [2]: discrete pMHC-I bands |
| FLRGRAYGL [EBV] | – | – | pMHC-I bands upon incubation of the complex with the peptide [2]: discrete pMHC-I bands |
| ILDTAGQEEY [RAS, reference compound] | – | – | Tm ([1]; HLA-A*01:01 refolded with the named peptide): 52 °C |
| KILGFVF(BF)V [BetaA02] | 53 | complete fluorescent peptide exchange | – |
| KILGFVFJV (photolabile J residue; VARIANT 8 J=3-amino-3-(2-nitrophenyl)-propionic acid) [PhotoA02, reference compound] | 52 | – | – |
| KILGFVβFTV [βF-P7] | 63 | allowed peptide loading | exchange of βF placeholder peptide on HLA-A*02:01 for fluorescent peptide (HLA-A*02:01; [4]): no peptide exchange |
| KILGFβFFTV [βF-P6] | 61 | allowed peptide loading | exchange of βF placeholder peptide on HLA-A*02:01 for fluorescent peptide (HLA-A*02:01; [4]): no peptide exchange |
| KILGβFVFTV [βF-P5] | 62 | allowed peptide loading | – |
| KILβFFVFTV [βF-P4] | – | complete fluorescent peptide exchange | – |
| KIβFGFVFTV [βF-P3] | 58 | complete fluorescent peptide exchange | – |
| MLYQHLLPL [T1D95] | – | – | pMHC-I bands upon incubation of the complex with the peptide [2]: discrete pMHC-I bands |
| βFILGFVFTV [βF-P1] | – | complete fluorescent peptide exchange | – |
